# Laboratory results reported in patent US6337333B1, “Method of treating autoimmune disease with fludarabine-5′-monophosphate” (priority 1992, dated 2002).
# Legend:
# IgM-RF production = assay: Cumulative IgM-RF production in SAC + rIL-2 cultures, EIA; format: cell-based, human; conditions: for effect on measurable IgM-RF: FIG. 7C; for accumulation of IgM-RF: 5 and 10 day SAC rIL-2 cultures, preliminary studies
# Text: In FIG. 7, peripheral blood mononuclear cells (PBMC) enriched for B lymphocytes (BC92; 35% CD19, 33% CD20, 35% CD3) were continuously cultured for 5 days in either medium alone, Staphylococcus aureus Cowan I (SAC) plus interleukin 2 (IL-2) (50 U/ml), or SAC plus IL-2 in the presence of various concentrations of FLP or 2-chlorodeoxyadenosine (2CDA). After 5 days of culture, the supernatants were harvested and serial dilutions of supernatant assayed for huIgM and huIgG by EIA. The presence of IgM rheumatoid factor (IgM-RF) was determined by EIA using the Vectastain Biotin-Streptavidin amplification system. Results are reported as O.D. 405 nm units. […] The results shown are from 1 representative experiment of 4 separate experiments conducted with 4 different sources of packed leukocytes.
# In FIG. 8, peripheral blood mononuclear cells (PBMC) enriched for B lymphocytes (BC92, 35% CD19, 33% CD20, 35% CD3) were continuously cultured for 10 days in either medium alone, Staphylococcus aureus Cowan I (SAC) plus interleukin 2 (IL-2) (50 U/ml), or SAC plus IL-2 in the presence of various concentrations of FLP or 2CDA. At the end of the culture period, the supernatants were harvested and serial dilutions assayed for huIgM, huIgG, and IgM-RF by EIA. The cells were phenotyped by flowcytometry. Results are reported as O.D. 405 nm units. […] The results shown are from 1 experiment representative of 3 separate experiments conducted with 3 different sources of packed leukocytes.
# In FIG. 9, peripheral blood mononuclear cells (PBMC) (BC93; 22% CD19, 20% CD20, 78% CD3) were continuously cultured for 5 days in either medium alone, Staphylococcus aureus Cowan I (SAC) plus interleukin 2 (IL-2) (50 U/ml) or 20% T cell conditioned medium (Tcm) in the presence of various concentrations of FLP. At the end of the 5 day culture period, the supernatants were harvested and serial dilutions assayed for huIgM, huIgG, and IgM-RF by EIA. The results are reported as O.D. 405 nm units. […] The results shown are from one representative experiment.
# The procedure to determine amounts of IgM-RF in culture supernatants was a modification of the methodology described above. Briefly, plates were coated with 100 μl/well of a 2.4 μg/ml solution of human IgG Fc fragments (Jackson ImmunoResearch, Chrompure #009-000-008) in 0.1 M sodium carbonate, pH 9.6 overnight at 4° C. The wells were blocked with 0.1% BSA/PBS for 1 hr at RT, and then serial dilutions of culture supernatant were cultured at 100 μl/well for 18-48 hrs at RT. A Vectastain Human IgM ABC-AP kit (Vector Laboratories, #AK-5009, Burlingame, Calif.) was used to develop the plates. […] Results are reported as O.D. units at 405 nm.
# [1] = test system: human T-lymphoblastoid cell lines; conditions: cited from earlier work
# B cell subtypes = conditions: 0.1-1.0 μg/ml for 48 hr, then 5 to 10 days SAC/rIL-2; data not shown
# Procedure: B lymphocytes are incubated with drug (0.1-1.0 μg/ml) for 48 hr, followed by 5 to 10 days culture with SAC/rIL-2. The supernatant is then assayed at 5 and 10 days for IgM, IgG, and IgM-RF. Analyze the cells by flowcytometry at day 5 for CD20, CD20/CD5, CD5/sIgM, CD5/IgG, CD20/5/sIgM, and CD20/5 sIgG.
# [2] = test system: collagen-induced arthritis; conditions: 1 and 10 mg/kg/day injected days 0-10 or days 10-20
# Procedure: The study involves two treatment schedules (47). In Schedule I, FLP is injected on a daily basis on days 0-10 at doses of 1 and 10 mg/kg/day. In Schedule II, FLP is injected at days 10-20 at 1 and 10 mg/kg/day. […] Clinical, histological, EIA, and flowcytometry are employed to follow the progress of the disease.
# B lymphocytes = conditions: SAC + rIL-2, drug present 0-72 hr, 72-144 hr or continuously; results not shown
# Procedure: The B lymphocytes are cultured with SAC +rIL-2 under the following conditions:
# 1. 0 to 72 hr + drug (0.1-0.5 […]), wash, continue culture for additional 72 hr
# 2. 0 to 72 hr, wash, add drug for additional 72 hr culture
# 3. No drug for 6 days (wash at 3 days)
# 4. Drug in continuous culture for 6 days
# At the end of the culture period, the supernatants are assayed for IgM, IgG, and IgM-RF.
# T lymphocytes = assay: T lymphocyte proliferative response to mitogen after 18 hr drug pretreatment (3H-thymidine); format: cell-based, human; conditions: 18 hr pretreatment; for % Suppression: T lymphocytes
# Procedure: In FIG. 1, freshly isolated PBMC were enriched for T and B lymphocytes using Nylon Wool (see Materials and Methods, Example A). The enriched lymphocyte subpopulations were then incubated for 18 hrs at 37° C. with various concentrations of drug. At the end of the pretreatment period, the cell samples were washed, adjusted to 2×10^5 viable cells/ml, and cultured at 1×10^4/well in flat (B cells) or round (T cells) bottomed 96 well microtiter plates in […]. The T cells were incubated for 3 days with PHA-P ([…]) or Con A (5 μg/ml) and the B cells were cultured for 6 days with either PWM (2 μg/ml) or SAC ({fraction (1/60,000)}). 1 μCi of ^3H-thymidine was added per well during the last 18 hr of culture. The wells were then harvested onto glass fiber filters, and counted in 7 ml of Cytoscint (ICN) on the LKB 1219 Rackbeta scintillation counter. The results are expressed as the mean cpm of triplicate wells.
# Peripheral blood mononuclear cells obtained from normal donors as packed leukocyte preparations were enriched for T and B lymphocytes and pretreated with drug for 18 hrs prior to mitogen stimulation.
# Peripheral blood mononuclear cells enriched for either T or B lymphocytes were incubated for 18 hrs in complete S-10 medium at 37° C. in 12×75 mm culture tubes at 5×10^5 cells/ml. The cells were then washed in S-10 and cultured in triplicate for either 3 (T lymphocytes) or 6 (B lymphocytes) days at 2.5×10^4/well in round bottom 96-well microtiter plates in S-10 medium at 37° C. and a 5% CO2 humidified atmosphere. The wells were pulsed with 1 μCi 3H-thymidine for the last 18 hr of culture, harvested onto glass fiber filters, and counted with 7 ml Cytoscint with a LKB Rackbeta scintillation counter. The results are reported as “percent Suppression”:
# % Suppression={1−(mean cpm exp./mean cpm stim control)}×100
# [3] = B-CLL patients; cited from earlier work
structure (smiles),measurement,setting,value
"Nc1nc(Cl)nc2c1ncn2[C@H]1C[C@H](O)[C@@H](CO)O1 [2CDA, 2-chlorodeoxyadenosine]",effect on measurable IgM-RF,"IgM-RF production; 1 μg/ml, 5 days",less effect
same,effect on IgM-RF accumulation compared with FLP,"IgM-RF production; 1 μg/ml, 10 days",characteristics similar to FLP
same,accumulation of IgM-RF,IgM-RF production,dose-related decrease
same,levels giving growth inhibition,[1],nanomolar levels
"Nc1nc(F)nc2c1ncn2[C@@H]1O[C@H](COP(=O)(O)O)[C@@H](O)[C@@H]1O [FLP, fludarabine-5′-monophosphate]",sensitivity of B cell subtypes to drug,B cell subtypes,CD5 positive B cells are found to be more sensitive
same,activity in arthritis model,[2],active following onset of disease
same,part of the life cycle on which the drug has its primary effect,B lymphocytes,early stage B lymphocyte proliferation/differentiation
same,IgM-RF production,"IgM-RF production; 0.1 μg/ml, 10 days, FIG. 8C",50 % of control
same,effect on measurable IgM-RF,"IgM-RF production; 1 μg/ml, 5 days",reduce the measurable IgM-RF
same,level of measurable IgM-RF,"IgM-RF production; 5 μg, 10 days, FIG. 8C",below the medium control levels
same,effect on measurable IgM-RF,"IgM-RF production; 5 μg/ml, 5 days",reduce the measurable IgM-RF
same,effect on IgM-RF accumulation,"IgM-RF production; 0.1 and 0.5 μg/ml, PBMC, 5 days, cultures containing rIL-2 or 20% T cell conditioned medium, FIG. 9C",reduce
same,accumulation of IgM-RF,IgM-RF production,dose-related decrease
same,suppression of T lymphocyte's ability to respond to mitogen,T lymphocytes; FIG. 1A,suppress
same,% Suppression,"T lymphocytes; CON A (5 μg/ml), BC5, 5 μg/ml of drug",29%
same,% Suppression,"T lymphocytes; CON A (5 μg/ml), BC6, 1 μg/ml of drug",4%
same,% Suppression,"T lymphocytes; CON A (5 μg/ml), BC6, 5 μg/ml of drug",29%
same,% Suppression,"T lymphocytes; CON A (5 μg/ml), BC7, 1 μg/ml of drug",16%
same,% Suppression,"T lymphocytes; CON A (5 μg/ml), BC7, 5 μg/ml of drug",40%
same,% Suppression,"T lymphocytes; CON A (5 μg/ml), leukocyte preparation BC5, 1 μg/ml of drug",6%
same,% Suppression,"T lymphocytes; PHA-P (5 μg/ml), BC5, 1 μg/ml of drug",24%
same,% Suppression,"T lymphocytes; PHA-P (5 μg/ml), BC5, 5 μg/ml of drug",32%
same,% Suppression,"T lymphocytes; PHA-P (5 μg/ml), BC6, 1 μg/ml of drug",0%
same,% Suppression,"T lymphocytes; PHA-P (5 μg/ml), BC6, 5 μg/ml of drug",15%
same,% Suppression,"T lymphocytes; PHA-P (5 μg/ml), BC7, 1 μg/ml of drug",25%
same,% Suppression,"T lymphocytes; PHA-P (5 μg/ml), BC7, 5 μg/ml of drug",50%
same,peak concentration of F-ara-ATP in the lymphocytes relative to the serum peak,[3],10 fold
